In paper PMC10786692 (The Journal of Clinical Investigation, 2024):

Legend:
[1] = system: phospho-(S635)Rad50; test: Paired tumor biopsy p-Rad50 IHC; type: in vivo, human; settings: four paired biopsies, after 2-week dosing
Protocol: PD sampling took place at baseline (within 7 days prior to dosing) and between days 15 and 22 of dosing (day 14 for intermittent dosing cohorts). PD samples included PBMCs and tumor biopsies. PBMCs were analyzed by immunofluorescence for γ^(S139)H2AX, p-^(S345)Chk1, and total Chk1, as described in Supplemental Methods. Paired tumor biopsies were formalin fixed and analyzed for nuclear p-^(S635)Rad50 and γH2AX by IHC. […]
signatures for heatmap construction were used from MSigDB (49) and cell-type-related transcripts from NanoString annotations and Bindea et al (50). Cell-type deconvolution was performed using CIBERSORTx (51).
Supplementary Pharmacodynamic methods
Formalin fixed paraffin-embedded tumor samples were used. […] H-score was calculated using HALO image analysis (Indica Labs). […] Nuclear ATM (Abcam 32420) IHC staining was carried out on the Ventana autostainer, using DAB detection and assessed by H-score, but samples were only deemed acceptable if lymphocyte staining (internal control) was at least 2+ (moderate) intensity. Cyclin E1 (Invitrogen HE12) staining was carried out on the Ventana autostainer, using DAB detection and the H-score was quantified using HALO image analysis (Indica Labs). Ki67 (Mib-1, Dako M7240) was scored by percent nuclear positivity using a global unweighted method, scoring 4 areas of 100 cells. […]

[2] = Dose-limiting toxicity, MTD and RP2D determination; type: in vivo; settings: for Number of DLT: 3 evaluable; for Patients with DLT / number of DLT: 6 evaluable
Protocol: For part A (dose escalation; Figure 1, A and B), the starting dose of 20 mg was selected based on animal toxicity studies. Dosing was continuous, and escalation used a modified Fibonacci method. Initial dose escalation was planned in single patient cohorts, changing to 3+3 design after the first grade-2 toxicity was seen. […] DLT definitions are in the Supplemental Methods.
For part B, all patients received the RP2D as defined for part A. Part B allowed for different schedules (continuous/intermittent) to be assessed. Initially, a continuous dosing schedule was used for the first 6 patients. […] Pretreatment biopsy was mandatory in part B. DNA-Seq of archival tumor material or review of external tumor sequencing was used to enrich for patients with putative genomic markers of sensitivity to ATRi, based on preclinical data, including oncogene amplification or driver mutation, ATM/G1 pathway defects (alteration in ATM, CHK2, or other components of the pathway causing G1 cell-cycle arrest after DNA damage), SWI/SNF (switch/sucrose nonfermentable, a chromatin-remodeling complex) pathway defect, genomic instability/homologous recombination deficit (HRD), or defect in a gene synthetically lethal with ATRi in published data ([46], [47]) (Figure 1B and Supplemental Table 3). […]
Criteria for Dose Limiting Toxicity
1. Hematological toxicity
1. Grade 3 thrombocytopenia with bleeding
2. Grade 4 thrombocytopenia
3. Grade 4 neutropenia lasting >7 days in the absence of growth factor […]
and/or systemic infection
5. Any other grade ≥4 hematological toxicity
2. Cardiovascular toxicity
1. Clinically significant hypotension defined as an asymptomatic fall in systolic blood pressure more than 20mmHg to below 70mmHg persisting for at least 10 minutes
2. Symptomatic orthostatic fall in systolic blood pressure of more than 20mmHg compared to resting supine blood pressure
3. Prolongation of QTc >0.5 seconds (using an appropriate correction […]
3. Gastrointestinal/hepatic toxicity
1. ALT or AST >5 times ULN; ALP >5 times ULN with elevated gamma- GT
2. ALT or AST >3 times ULN (or ALP >3 times ULN with elevated gamma-GT) with the appearance of symptoms associated with a clinical diagnosis of hepatitis including right upper quadrant pain or tenderness, fever, rash, or eosinophilia (>5%)
3. [ALT or AST >3 times ULN] and [total bilirubin >2 times ULN] or INR >1.5x ULN (unless patient receiving warfarin) (or other evidence of impaired liver synthetic function)
4. Any other grade 3-4 non-hematological toxicity occurring during the time period from the first dose to the end of the first cycle
2. Excluding grade 3 nausea or vomiting if ameliorated by medical management
3. Excluding grade 3 fatigue unless there is an increase by 2 grades from baseline
5. Any dose in cycle 1, or the start of cycle 2, delayed by more than 7 days due to toxicity or patient unable to complete cycle 1 at the planned dose due to toxicity (parts A and B only)
6. Any other toxicity that is greater than baseline, is clinically significant and/or unacceptable, does […]
is considered to be dose-limiting by the investigators.

[3] = system: advanced solid tumors; test: Antitumor response by RECIST 1.1 and duration on study; type: in vivo, human; settings: for Patients with PR: 40 mg BD or more

C[C@@H]1COCCN1c1cc(C2([S@](C)(=N)=O)CC2)nc(-c2cc[nH]c3nccc2-3)n1 [ceralasertib]
p-Rad50 in paired tumor biopsies [1]: upregulation
Number of DLT ([2]; 20 mg BD): 0
Number of DLT ([2]; 40 mg BD): 0
Patients with DLT / number of DLT ([2]; 80 mg BD): 1
Patients with DLT / number of DLT ([2]; 240 mg BD): 3
Recommended phase 2 dose (RP2D) ([2]; BD (twice daily), intermittent: 2 weeks on, 2 weeks off, 4-weekly cycle): 160 mg
Maximum tolerated dose ([2]; BD, continuous dosing, dose escalation): 160 mg
Patients with PR ([3]; mutation of interest, 4 of 30): 13%
Patients with PR ([3]; no mutation of interest, 1 of 11): 9%
Progressive disease, n (%) ([3]; 160 mg BD or more, n = 49): 15 (30%)
Median duration on treatment ([3]; 4 ATM-low patients, range 8–29): 13 weeks
Patients deriving clinical benefit ([3]; 11 patients with oncogene-driven tumors): 3
Best overall response: progressive disease incl. clinical progression, n (%) ([3]; 66 evaluable patients): 27 (41%)
Best overall response: stable disease incl. 1 unconfirmed PR, n (%) ([3]; 66 evaluable patients): 34 (52%)
Best overall response: confirmed partial responses, n (%) ([3]; 66 evaluable patients, 20–240 mg BD): 5 (8%)
Duration ([3]; ARID1A E1387X, lobular breast carcinoma): 42 days
Duration ([3]; ARID1A Q1188X, ovarian clear cell): 275 days
Duration ([3]; ARID1A R693*, eccrine adenocarcinoma): 240 days
Duration ([3]; ARID1A S1623L, cervix adenocarcinoma): 203 days
Duration ([3]; ARID2 Y854fs, SCCHN): 697 days
Tumor shrinkage ([3]; ARID2 frameshift-bearing HNSCC): 29%
Patients experiencing SD ([3]; ATM-low patients): 3 of 4
Best response ([3]; CCNE1 amplification, peritoneal carcinoma, 20 mg BD): progressive disease
Duration on study with SD ([3]; CCNE1 amplification, serous endometrial carcinoma): 12 weeks
Duration of RECIST SD / on study ([3]; HNSCC with ARID2 frameshift): 99 weeks
Duration of RECIST SD ([3]; HNSCC with CCND1 amplification): 49 weeks
Duration on study ([3]; HNSCC, MRE11 and CDKN2A mutation): 1,194 days
Duration on study ([3]; HNSCC, RECIST PR, 40 mg BD): 106 days
Duration of RECIST SD ([3]; HNSCC, no sequencing available): 48 weeks
Duration on study with confirmed PR ([3]; MRE11 stop-gain R633X with CDKN2A stop-gain): more than 32 months
Duration ([3]; PBRM S295*, SCCHN): 112 days
Median duration of response ([3]; PR or SD, with a mutation of interest): 185.5 days
Median duration of response ([3]; PR or SD, without a mutation of interest): 105 days
Duration of response ([3]; PR, HNSCC with APC frameshift and TP53 mutation, 40 mg BD): 15 weeks
Duration of response ([3]; PR, HNSCC with CDKN2A and MRE11A frameshift, 160 mg BD, remains on study): 170 weeks
Duration of response ([3]; PR, esophageal squamous cell carcinoma, HR/Fanconi deficiency, 160 mg BD): 47 weeks
Duration of response ([3]; PR, nasopharyngeal carcinoma, NRAS activating mutation, 240 mg BD): 14 weeks
Duration of response ([3]; PR, ovarian clear cell carcinoma, ARID1A mutation, 160 mg BD, remains on study): 251 weeks
Median duration of response ([3]; RECIST PR patients, IQR 14.9–251.0): 46.7 weeks
Duration of RECIST SD ([3]; digital papillary adenocarcinoma with TP53 mutation): 51 weeks
Duration of SD ([3]; eccrine adenocarcinoma, ARID1A R693X, CDKN2A deletion, 240 mg BD): 34 weeks
Duration on study ([3]; esophageal squamous cell carcinoma, RECIST PR, 160 mg BD intermittent): 575 days
Duration of SD ([3]; increased cyclin E1 by IHC, cervical adenocarcinoma): 29 weeks
Duration of SD ([3]; increased cyclin E1 by IHC, serous endometrial carcinoma, germline BRCA1 mutation): 16 weeks
Duration on study ([3]; nasopharyngeal carcinoma, NRAS activation, RECIST PR, 240 mg BD): 341 days
Duration on study ([3]; pancreatic adenocarcinoma, unconfirmed PR, 160 mg BD intermittent): 480 days
Duration on study with SD ([3]; pathogenic ATM mutation R1898fsX with coexisting ARID1A mutation): 39 weeks
Participants deriving clinical benefit ([3]; seven participants with SWI/SNF pathway aberrations): 6
Duration of response ([3]; unconfirmed PR, TP53 mutant pancreatic adenocarcinoma, 160 mg BD): 15 weeks
